From ChEMBL document CHEMBL1132617, “Diversity analysis of 14 156 molecules tested by the National Cancer Institute for anti-HIV activity using the quantitative structure-activity relational expert system MCASE” (J Med Chem, 1999)
Calls of active or inactive are those of the source. The calls are words filed in the database; no cut-off is given here.

Assays:
[1] = tested on: Human immunodeficiency virus 1; assay: HIV antiviral activity; type: functional
[2] = molecular target: Human immunodeficiency virus type 1 integrase (Human immunodeficiency virus 1) (UniProt Q7ZJM1); assay: Antiviral activity as inhibition of HIV integrase; Inactive
[3] = molecular target: Human immunodeficiency virus type 1 protease (Human immunodeficiency virus 1) (UniProt Q72874); assay: Antiviral activity as inhibition of HIV protease; Active
[4] = molecular target: Human immunodeficiency virus type 1 reverse transcriptase (Human immunodeficiency virus 1) (UniProt Q72547); assay: Antiviral activity as inhibition of HIV reverse transcriptase; Active
[5] = molecular target: Human immunodeficiency virus type 1 reverse transcriptase (Human immunodeficiency virus 1) (UniProt Q72547); assay: Antiviral activity as inhibition of HIV reverse transcriptase; Inactive
[6] = molecular target: Human immunodeficiency virus type 1 protease (Human immunodeficiency virus 1) (UniProt Q72874); assay: Antiviral activity as inhibition of HIV protease; Inactive

Chain of Human immunodeficiency virus type 1 integrase (Human immunodeficiency virus 1) (Q7ZJM1 as listed by the source): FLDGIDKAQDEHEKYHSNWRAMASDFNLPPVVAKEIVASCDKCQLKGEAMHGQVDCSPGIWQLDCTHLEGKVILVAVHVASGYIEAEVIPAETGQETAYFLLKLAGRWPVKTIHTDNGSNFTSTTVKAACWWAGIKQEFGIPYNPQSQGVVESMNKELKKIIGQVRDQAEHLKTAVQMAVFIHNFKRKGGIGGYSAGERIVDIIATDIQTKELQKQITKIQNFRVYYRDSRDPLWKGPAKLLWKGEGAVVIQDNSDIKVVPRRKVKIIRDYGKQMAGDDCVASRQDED

| SMILES | Average activity [1] | further results |
| --- | --- | --- |
| C=C/C=C\C=C\[PH](=O)/C=C/C (centres undefined) | 51 |  |
| O=c1c(O)c(-c2ccc(O)cc2)oc2cc(O)cc(O)c12 |  | Activity [2]: inactive |
| O=C1C2=C(C(=O)c3ccccc31)C(O)(S(=O)(=O)O)C(O)(S(=O)(=O)O)C1N=CC=CC21 (centres undefined) |  | Activity [3]: Active |
| CCN1c2ccccc2C2NC=C(C)C2c2ccc(OC)cc21 (centres undefined) |  | Activity [4]: Active |
| CC1C(=O)NC(=O)N(COCCO)C1Sc1cccc(O)c1 (centres undefined) |  | Activity [5]: inactive |
| CCCCCCc1cc2c(cc1O)CC(=O)C(C(c1ccccc1)C1COc3cc(O)c(CCCCCC)c(O)c3C1)=C2O (centres undefined) |  | Activity [3]: Active |
| CCOCN1C(=O)NC(=O)C(C)C1Sc1ccccc1 (centres undefined) |  | Activity [4]: Active |
| CCC(Cl)CC | 56 |  |
| O=C(O)C1Cc2cc3c(cc2C(O)C1CO)OCO3 (centres undefined) |  | Activity [6]: inactive |
| CCC(F)CC | 56 |  |
| CCC1OC1C (centres undefined) | 56 |  |
| CCC(I)CC | 56 |  |

Continued, in another order:

| Average activity [1] | SMILES | further results |
| --- | --- | --- |
| 64 | CC(=O)NC(=O)N(C)C1CCC(N=[N+]=[N-])O1 (centres undefined) |  |
| 51 | C=C/C=C\C=C\[S+]([O-])/C=C/C (centres undefined) |  |
| 60 | C=CC(=C\C)/N=C(\C)S |  |
| 60 | C=C/C(=C\C)NC(C)=O |  |
| 51 | C=C/C=C/C=C/S(=O)(=O)/C=C/C |  |
| 51 | C=C/C=C\C=C\C(=O)/C=C/C |  |
| 37 | C=C/C(=C\C)C(=O)N/C(C)=C/C |  |
